Data reported in patent publication US4797488A, “Psychotropic polycyclic imides” (American Home Products Corporation, priority 1987, dated 1989).
Like-named read-outs stand apart in the source and are kept apart here.

Legend:
[1] = tested on: apomorphine-induced stereotyped behavior and climbing; test: Antagonism of apomorphine-induced stereotyped behavior and climbing; assay type: in vivo, CF-1 mice (Charles River); conditions: mice; for Apomorphine antagonism ED50, stereotypy / ED50 / Apomorphine antagonism ED50, climbing: head: p.o. (text: i.p.), apomorphine 1 mg/kg s.c.; for ED50: Mus musculus; for Ratio of the ED50 for stereotyped behavior to the ED50 for climbing: apomorphine-induced stereotypy/climbing
[2] = tested on: conditioned avoidance responding; test: Conditioned avoidance, shelf-jump response test; assay type: in vivo, male CD rats (Charles River); conditions: ip, single dose, rat
Description: (§1) The antipsychotic properties of the compounds of this invention were established by standard pharmacologically accepted procedures involving conditioned avoidance studies in which trained male CD rats (Charles River), 400-450 g. body weight are exposed to a fifteen second warning tone (conditioned stimulus) continued for an additional fifteen seconds accompanied by electric shock. The rat can avoid the electric shock by jumping to an exposed shelf (shelf-jump response). A response during the initial warning tone is considered an avoidance response, while a response during shock delivery is considered as escape response. The shelf-jump response test procedure follows that of Herman et al., Comm. in Psychopharm., 3, pp. 165-171 (1979). The compounds of this invention were tested at a single dose (40 mg./kg. i.p.) in this procedure and were rated relative to their inhibition of conditioned avoidance responding. A similar test procedure in which a lever press was substituted for a shelf-jump was used to establish the oral (p.o) activity of the test compounds. Orally active compounds were tested over a full dose range and the Avoidance Block activities reported as "AB50 's" (mg./kg.).

D-2 dopamine receptor = target: T1, D-2 dopamine receptor (Rattus norvegicus, UniProt P61169); test: [3H]Spiroperidol binding inhibition, homogenized limbic brain tissue
T1 construct: from tissue; host or cells: limbic brain tissue
T1 sequence (P61169 whole entry): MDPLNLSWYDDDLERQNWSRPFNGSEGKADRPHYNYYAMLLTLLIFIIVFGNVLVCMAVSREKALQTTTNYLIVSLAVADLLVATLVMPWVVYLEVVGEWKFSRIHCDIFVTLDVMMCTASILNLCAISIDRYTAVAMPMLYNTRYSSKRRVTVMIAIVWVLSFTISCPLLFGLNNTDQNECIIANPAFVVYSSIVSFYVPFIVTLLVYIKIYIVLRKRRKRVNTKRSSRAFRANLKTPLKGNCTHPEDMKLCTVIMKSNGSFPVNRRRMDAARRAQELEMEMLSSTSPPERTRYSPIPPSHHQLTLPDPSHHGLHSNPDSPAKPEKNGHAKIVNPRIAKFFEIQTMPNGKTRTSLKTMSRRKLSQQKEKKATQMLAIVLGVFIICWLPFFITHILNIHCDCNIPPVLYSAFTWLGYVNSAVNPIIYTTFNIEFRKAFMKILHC
Description: The results of this testing with compounds representative of the invention whose production is exemplified,infra, are as follows: […]

[3] = target: T2, 5-HT1A serotonin receptor (Rattus norvegicus, UniProt P19327); test: Inhibition of [3H] 8-OH DPAT binding; conditions: for inhibition at 1 µM / Ki: 5-HT1A
T2 construct: 44: 1685-1696, 1985; from tissue
T2 sequence (P19327 1-422): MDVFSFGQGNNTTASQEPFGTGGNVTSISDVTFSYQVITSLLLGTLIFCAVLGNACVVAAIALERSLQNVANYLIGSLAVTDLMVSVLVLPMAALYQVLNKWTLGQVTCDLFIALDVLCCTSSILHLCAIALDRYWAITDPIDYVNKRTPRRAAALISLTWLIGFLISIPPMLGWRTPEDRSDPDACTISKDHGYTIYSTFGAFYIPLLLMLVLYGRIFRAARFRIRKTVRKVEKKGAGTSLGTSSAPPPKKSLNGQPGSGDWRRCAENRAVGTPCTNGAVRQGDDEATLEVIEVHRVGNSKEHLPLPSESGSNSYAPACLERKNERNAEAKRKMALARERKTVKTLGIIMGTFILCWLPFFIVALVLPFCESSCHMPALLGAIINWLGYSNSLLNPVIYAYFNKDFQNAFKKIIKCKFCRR
Description: 8-OH DPAT (dipropylaminotetralin) from the 5-HT1A serotonin receptor by the procedure of Hall et al., J. Neurochem.

[4] = tested on: conditioned avoidance responding; test: Conditioned avoidance, discrete trial (lever press), oral; assay type: in vivo, rat; conditions: for ED50: Rattus norvegicus, po, read-out: Conditioned avoidance, discrete trial AB50 (Avoidance Block); for Conditioned avoidance, discrete trial AB50 (Avoidance Block): p.o.
Description: as §1

[5] = read-out: Apomorphine antagonism ED50, climbing
[6] = read-out: Apomorphine antagonism ED50, stereotypy

SMILES | inhibition at 1 µM (D-2 dopamine receptor) [%] | inhibition at 1 µM [3] [%] | Ki [3] [nM] | Ki (D-2 dopamine receptor) [nM] | Apomorphine antagonism ED50, stereotypy [1] | inhibition in vivo at 40 mg/kg [2] [%] | ED50 [1, 5] [mg/kg] | ED50 [1, 6] [mg/kg] | ED50 [4] [mg/kg] | Conditioned avoidance, discrete trial AB50 (Avoidance Block) [4] | Ratio of the ED50 for stereotyped behavior to the ED50 for climbing [1] | Affinity for 5-HT1A serotonin receptor (in words) ([3]; [3H] 8-OH DPAT displacement) | Apomorphine antagonism ED50, climbing [1]
O=C1C2CC(C(=O)N1CCCCN1CCN(c3cncc(Cl)n3)CC1)c1ccccc12 [Example 9, 2,3,4,5-Tetrahydro-3-[4-[4-(6-chloro-2-pyrazinyl)-1-piperazinyl]butyl]-1,5-methano-1H-3-benzazepine-2,4(3H, 5H)-dione] | 0 | 61 |  |  | inactive | > 20 |  |  |  |  |  |  | 
O=C1C2CC(C(=O)N1CCCCN1CCN(c3cncc(Cl)n3)CC1)C1CCCC21 (centres unmarked) [Example 2, Hexahydro-3-[4-[4-(6-chloro-2-pyrazinyl)-1-piperazinyl]butyl]-1,5-methanocyclopent[d]azepine-2,4(1H,3H)-dione] | 20 |  | 31 |  | inactive | > 20 | 24.2 |  |  | inactive |  |  | 
O=C1C2CC(C(=O)N1CCCCN1CCN(c3ncccn3)CC1)C1C2C2C3CC4C2C4C31 (centres unmarked) [Example 6, Decahydro-3-[4-[4-(2-pyrimidinyl)-1-piperazinyl]butyl]-1,5-methano-6,7,9-metheno-2H-pentaleno[1,2-d]azepine-2,4(3H)-dione] |  |  | 0.23 | 56 | inactive | ~80 | 0.4 |  | 33.8 |  |  |  | 
O=C(CCCN1CCC(O)(c2ccc(Cl)cc2)CC1)c1ccc(F)cc1 [haloperidol, reference compound] |  |  |  |  |  |  |  |  |  |  | 1.00 |  | 
O=C1C2CC(C(=O)N1CCCCN1CCN(c3cncc(Cl)n3)CC1)C1CC=CC21 (centres unmarked) [Example 5, 5,5a,8,8a-Tetrahydro-3-[4-[4-(6-chloro-2-pyrazinyl)-1-piperazinyl]butyl]-1,5-methanocyclopent[d]azepine-2,4(1H,3H)-dione] | 25 |  | 60 |  | inactive | > 20 | 47.2 |  |  | active |  |  | 
O=C1CC2(CCCC2)CC(=O)N1CCCCN1CCN(c2ncccn2)CC1 [buspirone, reference compound] |  |  |  |  |  |  |  |  |  |  |  | potent affinity | 
O=C1C2CC(C(=O)N1CCCCN1CCN(c3ncccn3)CC1)C1CCCC21 (centres unmarked) [Example 1, Hexahydro-3-[4-[4-(2-pyrimidinyl)-1-piperazinyl]butyl]-1,5-methanocyclopent[d]azepine-2,4(1H,3H)-dione] | 54 |  | 3 |  | inactive | > 20 | 4.08 |  | 40.1 |  |  |  | 
O=C1C2CC(C(=O)N1CCCCN1CCN(c3cnccn3)CC1)C1CCCC21 (centres unmarked) [Example 3, Hexahydro-3-[4-[4-(2-pyrazinyl)-1-piperazinyl]butyl]-1,5-methanocyclopent[d]azepine-2,4(1H,3H)-dione] | 23 |  | 41 |  |  | ~80 | 4.91 | 30.9 |  | inactive |  |  | 
O=C1C2CC(C(=O)N1CCCCN1CCN(c3ncccn3)CC1)C1CC=CC21 (centres unmarked) [Example 4, 5,5a,8,8a-Tetrahydro-3-[4-[4-(2-pyrimidinyl)-1-piperazinyl]butyl]1,5-methanocyclopent[d]azepine-2,4(1H,3H)-dione] | 59 |  | 3.5 |  | inactive | ~80 | 5.5 |  |  | weak |  |  | 
O=C1C2CC(C(=O)N1CCCCN1CCN(c3ncccn3)CC1)c1ccccc12 [Example 8, 2,3,4,5-Tetrahydro-3-[4-[4-(2-pyrimidinyl)-1-piperazinyl]butyl]-1,5-methano-1H-3-benzazepine-2,4(3H, 5H)-dione] | 23 | 89 |  |  | inactive | > 20 |  |  |  | inactive |  |  | inactive
CN(C)CCCN1c2ccccc2Sc2ccc(Cl)cc21 [chlorpromazine, reference compound] |  |  |  |  |  |  |  |  |  |  | 1.51 |  | 
O=C1C2CC(C(=O)N1CCCCN1CCN(c3cncc(Cl)n3)CC1)C1C2C2C3CC4C2C4C31 (centres unmarked) [Example 7, Decahydro-3-[4-[4-(6-chloro-2-pyrazinyl)-1-piperazinyl]butyl]-1,5-methano-6,7,9-metheno-2H-pentaleno[1,2-d]azepine-2,4(3H)-dione] | 54 |  | 6.95 |  | inactive | > 20 |  |  |  | inactive |  |  | inactive

More lines, main results first:

inhibition at 1 µM (D-2 dopamine receptor) [%] | inhibition at 1 µM [3] [%] | Ki [3] [nM] | Ki (D-2 dopamine receptor) [nM] | SMILES | Apomorphine antagonism ED50, stereotypy [1] | inhibition in vivo at 40 mg/kg [2] [%] | ED50 [1, 5] [mg/kg] | ED50 [1, 6] [mg/kg] | ED50 [4] [mg/kg] | Conditioned avoidance, discrete trial AB50 (Avoidance Block) [4] | Ratio of the ED50 for stereotyped behavior to the ED50 for climbing [1] | Affinity for 5-HT1A serotonin receptor (in words) ([3]; [3H] 8-OH DPAT displacement) | Apomorphine antagonism ED50, climbing [1]
100 |  | 2 |  | O=C1C2CC(C(=O)N1CCCCN1CCN(c3cccc(C(F)(F)F)c3)CC1)C1CCCC21 (centres unmarked) [Example 11, Hexahydro-3-[4-[4-(3-trifluoromethylphenyl)-1-piperazinyl]butyl]-1,5-methano-cyclopent[d]azepine-2,4(1H, 3H)-dione] |  | > 20 | 18.9 | 42.4 | 46.2 |  |  |  | 
51 |  | 4 |  | O=C1C2CC(C(=O)N1CCCCN1CCN(c3cnccn3)CC1)C1C2C2C3CC4C2C4C31 (centres unmarked) [Example 13, Decahydro-3-[4-[4-(2-pyrazinyl)-1-piperazinyl]butyl]-1,5-methano-6,7,9-metheno-2H-pentaleno[1,2-d]azepine-2,4(3H)-dione] |  | ~80 | 5.44 | 32.3 | 40.2 |  |  |  | 
 |  | 0.5 | 174 | O=C1C2CC(C(=O)N1CCCCN1CCN(c3ncccn3)CC1)C1C3CCC(C3)C21 (centres unmarked) [Example 15, Octahydro-3-[4-[4-(2-pyrimidinyl)-1-piperazinyl]butyl]-2H-1,5:6,9-dimethano-2H-3-benzazepine-2,4(3H)-dione] |  | > 20 | 14.3 | 2.54 |  | inactive |  |  | 
45 | 86 |  |  | O=C1C2CC(C(=O)N1CCCCN1CCN(c3ccc4ccccc4n3)CC1)C1C2C2C3CC4C2C4C31 (centres unmarked) [Example 14, Decahydro-3-[4-[4-(2-quinolyl)-1-piperazinyl]butyl]-1,5-methano-6,7,9-methano-2H-pentaleno[1,2-d]azepine-2,4(3H)-dione] | inactive | ~20 | 44 |  |  |  |  |  | 
 |  | 0.29 | 18 | COc1ccccc1N1CCN(CCCCN2C(=O)C3CC(C2=O)C2C3C3C4CC5C3C5C42)CC1 (centres unmarked) [Example 10, Decahydro-3-[4-[4-(2-methoxyphenyl)-1-piperazinyl]butyl]-1,5-methano-6,7,9-metheno-2H-pentaleno[1,2-d]azepine-2,4(3H)-dione] |  | > 20 | 4.71 | 10 |  | inactive |  |  | 
 |  | 0.2 | 30 | O=C1C2CC(C(=O)N1CCCCN1CCN(c3cccc(C(F)(F)F)c3)CC1)C1C2C2C3CC4C2C4C31 (centres unmarked) [Example 12, Decahydro-3-[4-[4-(3-trifluoromethylphenyl)-1-piperazinyl]butyl]-1,5-methano-6,7,9-metheno-2H-pentaleno[1,2-d]azepine-2,4(3H)-dione] | inactive | < 20 |  |  |  |  |  |  | inactive
